The target of one assay is T1, human CaR (Homo sapiens, UniProt P41180).
T1 construct: expressed in transfected cells; cDNA amplified from human kidney cDNA (TOYOBO); membrane fraction used
T1 sequence (P41180 20-1078): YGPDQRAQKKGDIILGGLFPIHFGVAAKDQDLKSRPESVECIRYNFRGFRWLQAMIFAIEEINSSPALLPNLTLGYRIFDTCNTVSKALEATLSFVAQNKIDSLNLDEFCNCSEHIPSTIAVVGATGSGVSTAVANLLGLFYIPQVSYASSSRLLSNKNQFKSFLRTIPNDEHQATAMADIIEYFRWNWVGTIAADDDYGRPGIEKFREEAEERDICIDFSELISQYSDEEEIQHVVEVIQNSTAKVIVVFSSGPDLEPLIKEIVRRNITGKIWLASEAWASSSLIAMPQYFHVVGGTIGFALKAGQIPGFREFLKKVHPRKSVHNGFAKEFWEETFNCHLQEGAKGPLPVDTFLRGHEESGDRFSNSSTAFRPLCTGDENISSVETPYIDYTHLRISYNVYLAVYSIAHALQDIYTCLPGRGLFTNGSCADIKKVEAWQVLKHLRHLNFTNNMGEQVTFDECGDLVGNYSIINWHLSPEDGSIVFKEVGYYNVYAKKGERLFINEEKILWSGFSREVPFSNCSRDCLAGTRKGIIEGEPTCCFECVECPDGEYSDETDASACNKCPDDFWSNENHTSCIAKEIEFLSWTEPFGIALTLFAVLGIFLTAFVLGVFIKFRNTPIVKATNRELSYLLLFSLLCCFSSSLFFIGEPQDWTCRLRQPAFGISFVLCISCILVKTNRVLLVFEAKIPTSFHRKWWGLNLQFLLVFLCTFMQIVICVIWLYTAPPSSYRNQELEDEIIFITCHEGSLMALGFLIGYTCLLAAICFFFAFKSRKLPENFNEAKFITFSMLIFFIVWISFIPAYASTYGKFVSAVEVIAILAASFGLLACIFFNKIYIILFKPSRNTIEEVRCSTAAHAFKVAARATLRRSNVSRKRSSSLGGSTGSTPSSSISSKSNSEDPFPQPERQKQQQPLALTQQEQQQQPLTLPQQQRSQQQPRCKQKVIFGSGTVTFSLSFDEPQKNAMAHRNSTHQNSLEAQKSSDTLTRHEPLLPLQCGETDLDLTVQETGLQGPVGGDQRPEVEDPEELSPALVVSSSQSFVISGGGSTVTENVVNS
The experiment in a line: GTPγS binding assay on human CaR-expressing CHO cell membrane. Format: biochemical. Particulars: 1 μM test compound, % of binding with 6 mM calcium only, compounds marked antagonist. How it is done:
Preparation of Membrane Fraction is Described Bellow. The human CaR-expressing CHO cells were inoculated to a F500 flask in 1.8×10^5 cells/flask followed by cultivation for 2 days. The cells were scraped with 10 ml of Phosphate-Buffered Saline containing 0.02% EDTA. After centrifugation (2000 rpm, 10 min) of the cells, the cell pellet was resuspended into 12 ml of homogenate buffer solution (10 mM NaHCO3, 1 mM EDTA, 1× Protease inhibitor cocktail (pH 7.4)) and homogenized by Polytron™ (2000 rpm, 1 min). The cell debris was removed by centrifugation (2000 rpm, 10 min), and then the CaR-expressing cell membrane fraction was collected by ultracentrifugation (Beckman 70 Ti type rotor, 30000 rpm, 1 hour).
The GTPγS binding activity was measured as follows. Twenty μg of the CaR-expressing cell membrane was incubated with test compounds for 10 min. The assays were carried out at room temperature for an hour in a reaction mixture solution containing 20 mM HEPES (pH.7.4), 100 mM NaCl, 1 mM MgCl2, 167 μg/ml DTT, 5 μM guanosine 5′-diphosphate, 0.4 nM [^35S]-guanosine 5′-(γ-thio) triphosphate ([^35S]-GTPγS) and 6 mM CaCl2. The reaction mixture was filtered through a GF/C filter. After washing four times with 300 μl of Phosphate-Buffered Saline, the amount of [^35S]-GTPγS bound to the filter was measured using a Top-count scintillation counter.
Effects of test compounds on [^35S]-GTPγS binding were expressed in percentage terms. This was calculated from the equation [100×(t′−b)]/(t−b)]. Herein, t′, t and b are values of [^35S]-GTPγS binding (dpm), t′ is a value in the presence of 6 mM calcium and the test compound, t is a value in the presence of 6 mM calcium only and b is a value in the absence of both 6 mM calcium and the test compound.
(Binding of GTPγS marks nucleotide exchange on a G protein.)
Consider `COc1ccc(C(CNC(=O)c2cnn3c2NC(c2ccccc2)CC3C(F)(F)F)c2ccccc2)cc1` (stereo not shown) [Test Compound 1, N-(2-(4-methoxyphenyl)-2-phenylethyl)-5-phenyl-7-(trifluoromethyl)-4,5,6,7-tetrahydropyrazolo[1,5-a]pyrimidine-3-carboxamide], for which the “[^35S]-GTPγS binding (%)” value is recorded as 34 (1 μM) %.

Regarding `COc1ccc(C(NC(=O)c2cnn3c2NC(c2ccccc2)CC3C)c2ccc(OC)cc2)cc1` (stereo not shown) [Test Compound 2, N-(bis(4-methoxyphenyl)methyl)-7-methyl-5-phenyl-4,5,6,7-tetrahydropyrazolo[1,5-a]pyrimidine-3-carboxamide], the “[^35S]-GTPγS binding (%)” value is reported as 0 (1 μM) %.

Turning to `CCC(CC)(NC(=O)c1cnn2c1NC(c1ccccc1)CC2C(F)(F)F)c1ccc(C(F)(F)F)cc1` (stereo not shown) [Test Compound 3, N-(1-ethyl-1-(4-(trifluoromethyl)phenyl)propyl)-5-phenyl-7-(trifluoromethyl)-4,5,6,7-tetrahydropyrazolo[1,5-a]pyrimidine-3-carboxamide], the “[^35S]-GTPγS binding (%)” value is 0 (1 μM) %.

As to `Cc1ccc(C(OC2CCN(C(=O)c3cnn4c3NC(c3ccccc3)CC4C(F)(F)F)CC2)c2ccc(C)cc2)cc1` (stereo not shown) [Test Compound 4, 3-((4-(bis(4-methylphenyl)methoxy)-1-piperidinyl)carbonyl)-5-phenyl-7-(trifluoromethyl)-4,5,6,7-tetrahydropyrazolo[1,5-a]pyrimidine], the “[^35S]-GTPγS binding (%)” value is recorded as 10 (1 μM) %.

As to `CC1(C(F)(F)F)CC(c2ccccc2)Nc2c(C(=O)NC34CC5CC(CC(C5)C3)C4)cnn21` (stereo not shown) [Test Compound 5, N-(1-adamantyl)-7-methyl-5-phenyl-7-(trifluoromethyl)-4,5,6,7-tetrahydropyrazolo[1,5-a]pyrimidine-3-carboxamide], the “[^35S]-GTPγS binding (%)” value is 12 (1 μM) %.

In the case of `CCC(CC)(NC(=O)c1cnn2c1NC(c1ccccc1)CC2(C)C)c1ccc(-c2ccsc2)cc1` (stereo not shown) [Test Compound 6, N-(1-ethyl-1-(4-(3-thienyl)phenyl)propyl)-7,7-dimethyl-5-phenyl-4,5,6,7-tetrahydropyrazolo[1,5-a]pyrimidine-3-carboxamide], the “[^35S]-GTPγS binding (%)” value was 0 (1 μM) %.

Staying with this assay, now noted: 10 μM test compound, % of binding with 6 mM calcium only, compound marked agonist.
Regarding `O=C(NCC(c1ccccc1)N1CCCC1)c1cnn2c1NC(c1ccccc1)CC2C(F)(F)F` (stereo not shown) [Test Compound 7, 5-phenyl-N-(2-phenyl-2-(1-pyrrolidinyl)ethyl)-7-(trifluoromethyl)-4,5,6,7-tetrahydropyrazolo[1,5-a]pyrimidine-3-carboxamide], the “[^35S]-GTPγS binding (%)” value is recorded as 256 (10 μM) %.
